{"source": "patent US20260365662A1", "about": "“ISOANDROGRAPHOLIDE ANALOGS AND METHOD FOR TREATMENT USING THE SAME” (Enveda Therapeutics, Inc., priority 2023, published 2026)", "key": {"[1]": {"tested_on": "human neutrophils", "experiment": "IL-8 induced neutrophil chemotaxis", "type": "cell-based", "conditions": "for IC50: IL-8 (2 nM)", "description": "(§1) Freshly isolated healthy human neutrophils were isolated and utilized. The neutrophils were treated with IL-8 at 2 nM or fMLP at 100 nM to induced chemotaxis.\n(§2) FIGS. 7A and 7B display the percentage of inhibition of 2 nm of IL-8 induced chemotaxis at different compound concentrations of Compound 3 as compared to Navarixin (comparative). FIGS. 7C and 7D display the percentage of inhibition of 100 nm fMLP induced chemotaxis at different compound concentrations of Compound 3 as compared to HCH6-1 (comparative). Table 3 below provides the IC50 values for each stimulus, providing a comparative measure of the compounds' efficacy."}, "[2]": {"tested_on": "mice", "experiment": "Chlorhexidine gluconate-induced peritoneal fibrosis model", "type": "in vivo, mouse", "conditions": "10, 30, 100 mpk, 0.1% CG, Day 22", "description": "From Day 1 to Day 21, 0.1% w/w of chlorhexidine gluconate (CG) in water was administered, every other day, to the mice by PO to induce peritoneal fibrosis. From Day 1 to Day 21, mice were treated with Compound 1 or an inhibitor of TGFβ receptor I (ALK5) (SB525334). At Day 22, the mice were euthanized.\nFIGS. 9A and 9B illustrate the effect of Compound 1 at 10, mpk, 30, mpk, and 100 mpk as compared to sham control, 0.1% chlorhexidine gluconate (CG) and vehicle, and an inhibitor of TGFβ receptor I (ALK5) (SB525334) at 30 mpk (comparative), and mesalamine at 50 mpk (comparative) on average peritoneal thickness and α-SMA expression in a mouse model of peritoneal fibrosis."}, "[3]": {"tested_on": "mice", "experiment": "MC903-induced atopic dermatitis mouse model (Example 11)", "type": "in vivo", "conditions": "3, 10, 30 mpk PO, BID, MC903, Day 14", "description": "From Day 1 to Day 14, 2 nmol in 100% ethanol, 50 μl/mouse/back skin (MC903) was administered every other day to mice to induce atopic dermatitis. From Day 1 to Day 14, mice were treated with Compound 1 or clobetasol. At Day 14, the mice were euthanized.\nFIGS. 11A-11C illustrate the effects of Compound 1 at 3 mpk, 10 mpk, and 30 mpk (PO, BID) as compared to normal control, vehicle control, and 0.05% clobetasol (topical, QD) (comparative) on atopic dermatitis in a mouse model."}, "[4]": {"tested_on": "mice", "experiment": "Imiquimod (IMQ) psoriasis mouse model", "type": "in vivo", "conditions": "30 mpk P.O., BID, 5% imiquimod, Day 0 to Day 7", "description": "From Day 0 to Day 7, 5% w/w of imiquimod (IMQ) in water was administered to the mice by PO to induce psoriasis. From Day 0 to Day 7, mice were treated with Compound 1, clobetasol, or dexamethasone. At Day 7, the mice were euthanized.\nFIGS. 10A and 10B illustrate the effect of Compound 1 at 30 mpk (P.O., BID) as compared to naive control, vehicle control, 0.05% clobetasol, and dexamethasone at 1 mpk (P.O., QD) on psoriasis in a mouse model. The graphs show the changes in ear thickness and Psoriasis Area and Severity Index (PASI) score over time."}, "[5]": {"tested_on": "mice", "experiment": "Bleomycin-induced pulmonary fibrosis model, prophylactic and treatment groups (Example 3)", "type": "in vivo, mouse", "description": "Prophylactic group (P): At Day 0, prophylactic treatment of mice (P) with Compound 1 or pirfenidone by PO was performed. From Day 0 to Day 20, the prophylactically treated mice (P) were intratracheally instilled with bleomycin. At Day 21, the mice (P) were euthanized.\nTreatment group (T): Likewise, from Day 0 to Day 7, naïve mice (T) were intratracheally instilled with bleomycin. At Day 7, the naïve mice were treated with Compound 1. Bleomycin instillation continued to Day 20. At Day 21, the mice (T) were euthanized.\nFIGS. 2A-2D and FIGS. 3A-3G illustrate the therapeutic effects of Compound 1 at 10 mpk (P), 30 mpk (P), 100 mpk (P), and 100 mpk (T), as compared to a normal control, treatment-free control (bleomycin), and pirfenidone (comparative) at 100 mpk (P) in a bleomycin-induced model of pulmonary fibrosis."}, "[6]": {"tested_on": "mice", "experiment": "DSS mouse model of colitis", "type": "in vivo", "conditions": "30 mpk, 2% DSS, Day 8", "description": "From Day-3 to Day 8, mice were treated with Compound 1, fingolimod, or mesalamine. From Day-3 to Day 0, mice were randomized and acclimated to their environment while assessing a disease activity index (DAI). At Day 1, 2% w/w of DSS in water was administered to the mice by PO. From Day 1 to Day 7, DAI continued to be assessed. At Day 8, the mice were euthanized post the final dose of Compound 1, fingolimod, or mesalamine.\nFIGS. 8A-8D present the efficacy of Compound 1 at 30 mpk as compared to vehicle control, DSS control, fingolimod at 1 mpk (comparative), and mesalamine at 50 mpk (comparative) in a DSS mouse model of colitis. The graphs show the effect of Compound 1 on disease activity index, stool consistency, rectal bleeding index, and combined histopathology."}, "[7]": {"tested_on": "human neutrophils", "experiment": "fMLP induced neutrophil chemotaxis", "type": "cell-based", "conditions": "for IC50: fMLP (100 nM), Donor 1", "description": "as §1, §2"}, "[8]": {"tested_on": "mice", "experiment": "Bleomycin-induced inflammation and cell counts, 10 days (Example 5)", "type": "in vivo, mouse", "conditions": "3, 10, 30 mpk PO, Day 10", "description": "At Day 0, prophylactic treatment of mice with Compound 3 or pirfenidone by PO was performed. From Day 0 to Day 9, the prophylactically treated mice were intratracheally instilled with bleomycin. At Day 10, the mice were euthanized.\nAs shown in FIGS. 5A-5G, the impact of Compound 3 at 3 mpk, 10 mpk, and 30 mpk as compared to normal control, treatment-free control (bleomycin), and pirfenidone (comparative) at 100 mpk on various cell counts associated with inflammation was evaluated. The bar graphs compare alveolar macrophage counts, neutrophil counts, lymphocyte counts, inflammation score, eotaxin (BALF), INFγ (lung), and IL-6 (lung)."}, "[9]": {"tested_on": "mice", "experiment": "LPS-induced acute lung injury model (Example 4)", "type": "in vivo, mouse", "conditions": "30 mpk PO, aerosolized LPS 1 mg/mL, 4 hours", "description": "At time point −1 hour, prophylactic treatment of mice by PO with Compound 3 or dexamethasone was performed. From time point −0.5 hours to 0 hours, neutrophil activation was induced with aerosolized LPS at 1 mg/mL. At timepoint 4 hours, blood, BALF, and lung tissue were harvested.\nFIGS. 4A-4G present the effects of Compound 3 at 30 mpk as compared to naive control, treatment-free control (LPS), and dexamethasone (comparative) at 5 mpk on inflammatory cytokines in a lipopolysaccharide (LPS)-induced acute lung injury model. The bar graphs compare the levels of TNF-α, IL-6, IL-36γ, Total cell count (BALF), neutrophils (BALF), neutrophils (blood), and eosinophils (BALF), MIP-2."}, "[10]": {"tested_on": "human precision-cut lung slices", "experiment": "Inflammation and fibrosis biomarkers in human precision-cut lung slices", "type": "cell-based", "conditions": "5 μM and 50 uM, hPCLS", "description": "Cryopreserved human precision-cut lung slices (hPCLS) were prepared and used to analyze biomarkers in inflammatory and fibrotic models. Information of the donors that provided the hPCLS is provided below.\nFIGS. 6A-6D illustrate the dose-dependent impact of Compound 3 at 5 μM and 50 uM as compared to vehicle control, nintedanib at 2.5 μM (comparative), and pirfenidone at 2.5 uM (comparative) on biomarkers associated with inflammation and fibrosis in human pulmonary cells."}, "[11]": {"tested_on": "mice", "experiment": "Bleomycin-induced pulmonary fibrosis model, prophylactic, 21 days (Example 2)", "type": "in vivo, mouse", "conditions": "PO, Day 21", "description": "At Day 0, prophylactic treatment of mice with Compound 3 or pirfenidone by PO was performed. From Day 0 to Day 20, the prophylactically treated mice were intratracheally instilled with bleomycin. At Day 21, the mice were euthanized.\nAs depicted in FIGS. 1A-1F, a series of bar graphs illustrate the reduction in fibrotic symptoms in a bleomycin-induced pulmonary fibrosis model upon treatment with Compound 3 at 1 mpk, 3 mpk, 10 mpk, and 100 mpk as compared to a normal control, treatment-free control (bleomycin), and pirfenidone (comparative) at 100 mpk. Parameters such as collagen deposition, collagen accumulation, collagen fiber formation, inflammatory cytokine expression, and inflammatory cell infiltration were measured."}, "[12]": {"conditions": "10, 30, 100 mpk (P) and 100 mpk (T), bleomycin"}}, "note": "Non-standard residues stand in square brackets, D forms with d. Residues, ends and D or L forms follow the SMILES beside them. *: point of attachment. Bz = O=C(c1ccccc1)*", "data": [{"smiles": "CC[C@@H](Nc1c(Nc2cccc(C(=O)N(C)C)c2O)c(=O)c1=O)c1ccc(C)o1", "note": "[Navarixin, reference compound]", "values": [{"measurement": "IC50", "setting": "[1]; All donors", "value": 2360, "unit": "nM"}, {"measurement": "IC50", "setting": "[1]; Donor 1", "value": 1230, "unit": "nM"}, {"measurement": "IC50", "setting": "[1]; Donor 2", "value": 2690, "unit": "nM"}, {"measurement": "IC50", "setting": "[1]; Donor 3", "value": 3160, "unit": "nM"}]}, {"smiles": "C[C@@]1(C#N)[C@H](O)CC[C@]2(C)[C@@H]1CC[C@@]1(C)O[C@H](C3=CCOC3=O)C[C@@H]21", "note": "[Compound 1, (2S,3aR,5aS,6R,7R,9aR,9bS)-7-hydroxy-3a,6,9a-trimethyl-2-(2-oxo-2,5-dihydrofuran-3-yl) dodecahydronaphtho[2,1-b]furan-6-carbonitrile]", "values": [{"measurement": "average peritoneal thickness", "setting": "[2]", "value": "reduction"}, {"measurement": "α-SMA expression", "setting": "[2]", "value": "reduction"}, {"measurement": "dermatitis severity", "setting": "[3]", "value": "decrease in dermatitis severity"}, {"measurement": "skin thickness", "setting": "[3]", "value": "decrease"}, {"measurement": "skin condition", "setting": "[4]", "value": "improvements in skin condition"}, {"measurement": "symptoms (ear thickness, PASI score)", "setting": "[4]", "value": "reduction in symptoms"}, {"measurement": "Ashcroft score", "setting": "[5]; [12]", "value": "lower the Ashcroft score"}, {"measurement": "hydroxyproline content", "setting": "[5]; [12]", "value": "reduce hydroxyproline content"}, {"measurement": "inflammatory cell infiltration in lung tissue", "setting": "[5]; [12]", "value": "decrease inflammatory cell infiltration"}, {"measurement": "fibrosis and lung tissue morphology (histology)", "setting": "[5]; H&E staining, 100× magnification, compared to control", "value": "reduced fibrosis and improved lung tissue morphology"}, {"measurement": "symptoms of colitis, such as weight loss and increased disease severity", "setting": "[6]", "value": "effectively mitigate the symptoms of colitis"}]}, {"smiles": "COC(=O)[C@@H](Cc1ccccc1)NC(=O)[C@H](Cc1c[nH]c2ccccc12)NC(=O)c1ccccc1", "note": "[HCH6-1, reference compound] (Bz-Trp-[dF]-OMe)", "values": [{"measurement": "IC50", "setting": "[7]", "value": 452, "unit": "nM"}]}, {"smiles": "C[C@@]12CCC(=O)N[C@@](C)(C#N)[C@H]1CC[C@@]1(C)O[C@H](C3=CCOC3=O)C[C@@H]21", "note": "[Compound 3, (2S,3aR,5aS,6R,10aR,10bS)-3a,6,10a-trimethyl-8-oxo-2-(2-oxo-2,5-dihydrofuran-3-yl) dodecahydro-2H-benzofuro[5,4-c]azepine-6-carbonitrile]", "values": [{"measurement": "inflammation and cell counts", "setting": "[8]", "value": "reduction in inflammation and cell counts"}, {"measurement": "IC50", "setting": "[1]; Homo sapiens, Neutrophil, All donors", "value": 2060, "unit": "nM"}, {"measurement": "IC50", "setting": "[1]; Homo sapiens, Neutrophil, Donor 1", "value": 1410, "unit": "nM"}, {"measurement": "IC50", "setting": "[1]; Homo sapiens, Neutrophil, Donor 2", "value": 3160, "unit": "nM"}, {"measurement": "IC50", "setting": "[1]; Homo sapiens, Neutrophil, Donor 3", "value": 1620, "unit": "nM"}, {"measurement": "inhibition of neutrophil chemotaxis", "setting": "[1]; induced by IL-8 at 2 nM", "value": "concentration-dependent inhibition"}, {"measurement": "cytokine levels", "setting": "[9]", "value": "dose-dependent reduction in cytokine levels"}, {"measurement": "IC50", "setting": "[7]; Homo sapiens, Neutrophil", "value": 798, "unit": "nM"}, {"measurement": "inhibition of neutrophil chemotaxis", "setting": "[7]; induced by fMLP at 100 nM", "value": "concentration-dependent inhibition"}, {"measurement": "IL-6 level", "setting": "[10]", "value": "corresponding decrease"}, {"measurement": "IL-8/CXCL8 level", "setting": "[10]", "value": "corresponding decrease"}, {"measurement": "MCP-1/CCL-2 level", "setting": "[10]", "value": "corresponding decrease"}, {"measurement": "collagen accumulation", "setting": "[11]", "value": "notable decrease"}, {"measurement": "collagen deposition", "setting": "[11]", "value": "notable decrease"}, {"measurement": "collagen fiber formation", "setting": "[11]", "value": "notable decrease"}, {"measurement": "inflammatory cell infiltration", "setting": "[11]", "value": "notable decrease"}, {"measurement": "inflammatory cytokine expression", "setting": "[11]", "value": "notable decrease"}]}]}
